The conditions of the data set: Crystal; DTA.

± gives the expanded uncertainty stated by the source.

Take `O=C(O)CCC(=O)O` [butanedioic acid]: the Normal melting temperature was 188 ± 1 °C.

(Values after the NIST ThermoML archive (doi:10.1021/je900021g).)
